Reference: article PMC12668310, “High‐Throughput Synthesis and Screening of a Cyanimide Library Identifies Selective Inhibitors of ISG15‐Specific Protease mUSP18” (Angewandte Chemie (International Ed. in English), 2025)

Target: T1, mUSP18 (Mus musculus, UniProt Q9WTV6)
T1 construct: (46-368); His-tag (N); made in house
T1 sequence (Q9WTV6 46-368): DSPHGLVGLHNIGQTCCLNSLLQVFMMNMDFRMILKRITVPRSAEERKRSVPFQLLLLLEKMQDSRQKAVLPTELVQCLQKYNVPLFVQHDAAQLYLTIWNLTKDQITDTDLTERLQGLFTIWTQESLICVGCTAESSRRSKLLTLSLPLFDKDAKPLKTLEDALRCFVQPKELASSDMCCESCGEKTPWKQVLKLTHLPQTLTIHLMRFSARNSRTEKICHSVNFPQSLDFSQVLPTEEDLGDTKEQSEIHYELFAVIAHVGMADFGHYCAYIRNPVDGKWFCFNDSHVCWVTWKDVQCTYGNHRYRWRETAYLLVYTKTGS
Assay: High-throughput screening, ISG15ct-RhoMP, single dose 1.25 µM
Type: biochemical, murine
Conditions: mUSP18 %inhibition; carboxylic acid (CA) building block alone; read-out: %inh CA only

Row | Structure (SMILES) | inhibition at 1.25 µM [%]
1 | O=C(O)c1cc(-c2ccc(Cl)cc2)oc1C(F)(F)F [CA133] | 11
2 | O=C(O)c1cccc(S(=O)(=O)Nc2ccc(Cl)cc2)c1 [CA134] | 10
3 | O=C(O)Cc1coc(-c2ccccc2)n1 [CA136] | 8.08
4 | O=C(O)CC(NS(=O)(=O)c1ccccc1)c1ccc(Cl)cc1 (centres unmarked) [CA138] | 22.3
5 | O=C(O)Cc1ccc(NS(=O)(=O)c2c(Cl)cccc2Cl)cc1 [CA141] | 9.99
6 | O=C(O)c1cccc(S(=O)(=O)NC2CC2)c1 [CA143] | 5.82
7 | COc1cc(C(=O)O)ccc1OCc1c(C)noc1C [CA147] | 5.62
8 | CN(Cc1ccco1)c1ccccc1C(=O)O [CA151] | 3.28
9 | Cc1nc(-c2c(C)c(C)nn(C)c2=O)sc1C(=O)O [CA153] | 1.24
10 | O=C(O)c1cnc(COc2ccccc2)s1 [CA154] | 0.13
11 | Cn1cc(S(=O)(=O)NCc2ccco2)cc1C(=O)O [CA157] | 2.07
12 | O=C(O)Cc1cccc(OCc2ccccn2)c1 [CA158] | 1.44
13 | COc1ccccc1-c1nnc(CC(=O)O)o1 [CA162] | 23.2
14 | Cc1ccc(N(CCC(=O)O)S(=O)(=O)c2ccccc2)cc1 [CA163] | 18.6
15 | O=C(O)c1cc(-c2ccc(Br)cc2)ns1 [CA165] | 16
16 | CCC1(Cn2cc(C(=O)O)nn2)COC1 [CA167] | 10.3
17 | O=C(O)c1noc(-c2cccc(Cl)c2)n1 [CA169] | 8.46

Results, then the compound that gave them:

Row | inhibition at 1.25 µM [%] | Structure (SMILES)
18 | 4.28 | O=C(O)c1ccn(-c2ncc(C(F)(F)F)cc2Cl)n1 [CA135]
19 | 3.97 | Cn1cc(NS(=O)(=O)c2ccsc2C(=O)O)cn1 [CA137]
20 | 14.3 | O=C(O)c1cccc(S(=O)(=O)NCC2CCCO2)c1 (centres unmarked) [CA139]
21 | 9.15 | O=C(O)c1c[nH]nc1-c1cccnc1 [CA140]
22 | 8.67 | O=C(O)c1csc(-c2cnccn2)n1 [CA142]
23 | 10.8 | O=C(O)c1ccc(Oc2cccc(Cl)c2Cl)nn1 [CA144]
24 | 4.43 | CC1CC1C(=O)N1CCCCC1C(=O)O (centres unmarked) [CA145]
25 | 8.58 | O=C(O)c1ncoc1-c1ccco1 [CA146]
26 | 7.78 | O=C(O)c1cc(-c2ccc(Cl)s2)[nH]n1 [CA148]
27 | 9.87 | O=C(O)Cc1ccc(S(=O)(=O)N2CCOCC2)s1 [CA149]
28 | 3.17 | O=C(O)c1cc(OCc2ccccc2)ccn1 [CA150]
29 | 2.22 | Cc1cccc(C(=O)N2CCCCC2C(=O)O)n1 (centres unmarked) [CA152]
30 | 4.05 | CC1=NN(c2ccc(C(=O)O)cc2)CC1 [CA155]
31 | 8.69 | Cc1oc(Cn2cc(Br)cn2)cc1C(=O)O [CA156]
32 | 2.85 | Cc1nc(-c2ncccn2)sc1C(=O)O [CA159]
33 | 3.82 | O=C(O)c1cn(CCc2ccccc2)nn1 [CA160]
34 | 2.32 | O=C(O)c1cn(CC(=O)N2CCCC2)nn1 [CA161]
35 | 14.4 | Cn1nccc1[1C@@H]1OCCC[1C@H]1C(=O)O [CA164]
36 | 10.9 | Cn1ncc(C2CC2)c1C(=O)O [CA166]
37 | 11.2 | O=C(O)c1cc(-n2ccnn2)ccc1F [CA168]
38 | 9.55 | Cc1nnnn1-c1cc(C(=O)O)cc(C(F)(F)F)c1 [CA171]
39 | 9.83 | CC1CCN(c2ncc(C(=O)O)s2)CC1 [CA172]
40 | 8.54 | O=C(O)C1CCN(c2ccc(=O)[nH]n2)CC1 [CA173]

Same assay, conditions: mUSP18 %inhibition; carboxylic acid (CA) with coupling reagents DIC/HOBT; read-out: %inh CA + DIC/HOBT

Row | Structure (SMILES) | inhibition at 1.25 µM [%]
41 | O=C(O)c1cc(-c2ccc(Cl)cc2)oc1C(F)(F)F [CA133] | 11.8
42 | O=C(O)c1cccc(S(=O)(=O)Nc2ccc(Cl)cc2)c1 [CA134] | 11.6
43 | O=C(O)Cc1coc(-c2ccccc2)n1 [CA136] | 12.8
44 | O=C(O)CC(NS(=O)(=O)c1ccccc1)c1ccc(Cl)cc1 (centres unmarked) [CA138] | 5.42
45 | O=C(O)Cc1ccc(NS(=O)(=O)c2c(Cl)cccc2Cl)cc1 [CA141] | 2.69
46 | O=C(O)c1cccc(S(=O)(=O)NC2CC2)c1 [CA143] | 3.07
47 | COc1cc(C(=O)O)ccc1OCc1c(C)noc1C [CA147] | 3.45
48 | CN(Cc1ccco1)c1ccccc1C(=O)O [CA151] | 7.61
49 | Cc1nc(-c2c(C)c(C)nn(C)c2=O)sc1C(=O)O [CA153] | 3.87
50 | O=C(O)c1cnc(COc2ccccc2)s1 [CA154] | 5.09
51 | Cn1cc(S(=O)(=O)NCc2ccco2)cc1C(=O)O [CA157] | 6.58
52 | O=C(O)Cc1cccc(OCc2ccccn2)c1 [CA158] | 6.76
53 | COc1ccccc1-c1nnc(CC(=O)O)o1 [CA162] | 4.62
54 | Cc1ccc(N(CCC(=O)O)S(=O)(=O)c2ccccc2)cc1 [CA163] | 0.52
55 | O=C(O)c1cc(-c2ccc(Br)cc2)ns1 [CA165] | 9.48
56 | CCC1(Cn2cc(C(=O)O)nn2)COC1 [CA167] | 2.71
57 | O=C(O)c1noc(-c2cccc(Cl)c2)n1 [CA169] | 4.42

Second part, the compound after the results:

Row | inhibition at 1.25 µM [%] | Structure (SMILES)
58 | 10.4 | O=C(O)c1ccn(-c2ncc(C(F)(F)F)cc2Cl)n1 [CA135]
59 | 20.1 | Cn1cc(NS(=O)(=O)c2ccsc2C(=O)O)cn1 [CA137]
60 | -1.37 | O=C(O)c1cccc(S(=O)(=O)NCC2CCCO2)c1 (centres unmarked) [CA139]
61 | 7.35 | O=C(O)c1c[nH]nc1-c1cccnc1 [CA140]
62 | 6.39 | O=C(O)c1csc(-c2cnccn2)n1 [CA142]
63 | 12.9 | O=C(O)c1ccc(Oc2cccc(Cl)c2Cl)nn1 [CA144]
64 | 1.71 | CC1CC1C(=O)N1CCCCC1C(=O)O (centres unmarked) [CA145]
65 | 6.8 | O=C(O)c1ncoc1-c1ccco1 [CA146]
66 | 9.65 | O=C(O)c1cc(-c2ccc(Cl)s2)[nH]n1 [CA148]
67 | 8.05 | O=C(O)Cc1ccc(S(=O)(=O)N2CCOCC2)s1 [CA149]
68 | 5.95 | O=C(O)c1cc(OCc2ccccc2)ccn1 [CA150]
69 | 6.16 | Cc1cccc(C(=O)N2CCCCC2C(=O)O)n1 (centres unmarked) [CA152]
70 | 20.8 | CC1=NN(c2ccc(C(=O)O)cc2)CC1 [CA155]
71 | 12.3 | Cc1oc(Cn2cc(Br)cn2)cc1C(=O)O [CA156]
72 | 8.46 | Cc1nc(-c2ncccn2)sc1C(=O)O [CA159]
73 | 10.4 | O=C(O)c1cn(CCc2ccccc2)nn1 [CA160]
74 | 14.5 | O=C(O)c1cn(CC(=O)N2CCCC2)nn1 [CA161]
75 | -2.41 | Cn1nccc1[1C@@H]1OCCC[1C@H]1C(=O)O [CA164]
76 | -0.27 | Cn1ncc(C2CC2)c1C(=O)O [CA166]
77 | -1.08 | O=C(O)c1cc(-n2ccnn2)ccc1F [CA168]
78 | 3.27 | Cc1nnnn1-c1cc(C(=O)O)cc(C(F)(F)F)c1 [CA171]
79 | 13.4 | CC1CCN(c2ncc(C(=O)O)s2)CC1 [CA172]
80 | 5.44 | O=C(O)C1CCN(c2ccc(=O)[nH]n2)CC1 [CA173]
